In PubChem BioAssay (NCI):
Where “and” joins values, the source holds several entries; their conditions need not be identical. Equal values may be shown once.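 Test compounds were applied to cells in 96-well plates for 48 hours at 5 doses. GI50 marks 50% less growth. At the TGI there is no net growth.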

Assays:
Assay in all cases: NCI anticancer screen, dose series, 48 h
K-562 leukemia = system: K-562 leukemia
OVCAR-3 ovarian = system: OVCAR-3 ovarian
RXF 393 renal = system: RXF 393 renal
DLD-1 colon = system: DLD-1 colon
DMS 114 small cell lung = system: DMS 114 small cell lung
KM20L2 colon = system: KM20L2 colon
M19-MEL melanoma = system: M19-MEL melanoma
SNB-78 CNS = system: SNB-78 CNS
DMS 273 small cell lung = system: DMS 273 small cell lung
HOP-18 NSCLC = system: HOP-18 NSCLC
SN12K1 renal = system: SN12K1 renal
XF 498 CNS = system: XF 498 CNS

| SMILES | TGI (K-562 leukemia) | TGI (OVCAR-3 ovarian) | TGI (RXF 393 renal) | also measured |
| --- | --- | --- | --- | --- |
| CCOC(=O)c1ccc(NC(=O)O/N=C(/Cl)CCl)cc1 | > 100 µM | > 100 µM | – | – |
| O=C1NC(=S)NNC12c1ccccc1-c1ccccc12 | > 10 µM | – | – | – |
| O=C(/C=C/C=C/c1ccccc1)c1ccc2c(c1)CCCC2 | > 100 µM | > 100 µM | – | – |
| COC(=O)C1(OC(=O)Sc2ccccc2)CCN(C)CC1 | 61.1 µM | > 45.3 µM | 34.9 µM | – |
| O=C(NC(CO)Cc1ccc(Oc2cc(CC(CO)NC(=O)OCc3ccccc3)ccc2OC(=O)OCc2ccccc2)cc1)OCc1ccccc1 (stereo not drawn) | 46.7 µM | 45 µM | – | – |
| O=C(NCCCN(CCCCN(CCCNC(=O)C(F)(F)F)CCCc1ccccc1)CCCc1ccccc1)C(F)(F)F | > 100 µM | – | 3.31 µM | – |
| COc1ccc(C(=O)/C=C/c2ccncc2)cc1OC | 6.11 µM | 18.6 µM | 25.7 µM | – |
| O=C(CCc1cc(O)cc(O)c1)NCCc1cc(O)cc(O)c1 | > 100 µM | > 100 µM | > 100 µM | – |
| Nc1nc2c(ncn2Cc2ccc(CO)cc2)c(=O)[nH]1 | > 100 µM | > 100 µM | > 100 µM | – |
| CN(CCN(C)C(=S)NN)C(=S)NN | – | > 100 µM | – | – |
| COc1ccc(-c2c(C#N)c(O)n(NS(=O)(=O)c3ccc(C)cc3)c(=O)c2C#N)cc1 | – | – | > 100 µM | – |
| COc1ccc(CCN=C2OCc3ccccc32)cc1OC | > 100 µM | – | – | – |
| CN(C)/C=N/n1c2ccccc2c2ccccc21 | > 100 µM | > 100 µM | > 100 µM | – |
| Cc1ccc(C(=O)N/N=C(\N=Nc2ccccc2[N+](=O)[O-])c2ccc(N(C)C)cc2)cc1 | > 100 µM | > 100 µM | – | – |
| COc1ccc(N2C(=O)CS(=O)(=O)C2c2cccc(Oc3ccccc3)c2)cc1 (stereo not drawn) | 8.44 µM | > 100 µM | 19 µM | – |
| O=S(=O)(O)c1ccc(N=Nc2ccc(N=Nc3c(O)ccc4ccccc34)cc2)cc1 | > 100 µM | > 100 µM | > 100 µM | – |
| CC(=C\c1ccccc1)/C=C(\C#N)C(N)=O | – | > 10 µM | > 10 µM | – |
| O=C1/C(=C/c2ccccc2)NC(=S)N1CN1CCOCC1 | > 100 µM | > 100 µM | – | – |
| COc1ccc(/C=N/n2c(-c3ccccc3)n[nH]c2=O)cc1 | > 100 µM | > 100 µM | – | – |

| SMILES | TGI (K-562 leukemia) | TGI (OVCAR-3 ovarian) | TGI (RXF 393 renal) | also measured |
| --- | --- | --- | --- | --- |
| CC(NNC(=O)CC(=O)N(C(=O)c1ccccc1)c1ccc(Cl)cc1)c1cc2ccccc2oc1=O (stereo not drawn) | > 10 µM | > 10 µM | > 10 µM | – |
| O=C(CC(=O)c1ccccc1)CC(O)(c1ccccc1)c1ccccc1 | 33.4 µM | 17.3 µM | – | TGI (DLD-1 colon): 26.6 µM; TGI (DMS 114 small cell lung): 5.73 µM; TGI (KM20L2 colon): 19.5 µM; TGI (M19-MEL melanoma): 13.9 µM; TGI (SNB-78 CNS): 81 µM |
| O=C(c1cc(Cl)cc(Cl)c1)N1CCN(C(=O)c2cc(Cl)cc(Cl)c2)C1=S | > 50.8 µM | 26.9 µM | 26.4 µM | – |
| CC[C@]1(Cc2ccc(OC)c(OC)c2)[C@@H]2C[C@@H](C3OCCO3)ON2O[C@H](OC2CCCC2(c2ccccc2)c2ccccc2)[C@@H]1OC(C)=O (stereo partly drawn) | 39.1 µM | 25.4 µM | – | – |
| CN1CCN(CN2C(=O)C3C4C=CC(C3C2=O)C2C(=O)N(CN3CCN(C)CC3)C(=O)C42)CC1 (stereo not drawn) | > 100 µM | > 100 µM | > 70.2 µM | – |
| CC(/C=N\NC(=S)N1CCCCC1)=N/NC(=S)N1CCCCC1 | > 100 µM | 5.12 µM | 4.28 µM | – |
| C[C@H]1C2Cc3cc(N)ccc3[C@@]1(C)CCN2CCc1ccccc1 | > 100 µM | 92.6 µM | > 100 µM | – |
| CC(=O)Nc1ccc(-c2nc3ccccc3s2)cc1 | 77 µM | – | 74.4 µM | – |
| C[C@@H]1C[C@](O)([C@@H](C)Cl)C(=O)O[C@@H]2CCN3CC=C(COC(=O)[C@]1(C)O)[C@H]23 | > 100 µM | > 100 µM | – | – |
| CC(C)C1=C(Cc2ccccc2)C(=O)O/C1=C\c1cc(Cl)c(O)c(Cl)c1 | 40.5 µM | 27.2 µM | 30.5 µM | – |
| CC12CC(C#N)(C#N)C(C#N)(CO1)C(=N)O2 (stereo not drawn) | > 100 µM | > 100 µM | > 100 µM | – |
| CC12CCC3C(CCC4=CC(O)CCC43C=O)C1(O)CCC2c1ccc(=O)oc1 (stereo not drawn) | 0.247 µM and 0.143 µM | 0.0153 µM | 0.00801 µM | GI50 (DLD-1 colon): 0.00769 µM; TGI (DLD-1 colon): 0.0571 µM; TGI (DMS 114 small cell lung): 0.00996 µM; TGI (DMS 273 small cell lung): 0.0228 µM; TGI (HOP-18 NSCLC): 0.0461 µM; GI50 (K-562 leukemia): 0.0274 µM; GI50 (KM20L2 colon): 0.05 µM; TGI (KM20L2 colon): 0.0365 µM and 0.0562 µM; GI50 (M19-MEL melanoma): 0.05 µM; TGI (M19-MEL melanoma): 0.072 µM and 0.061 µM; GI50 (RXF 393 renal): 0.00127 µM; GI50 (SN12K1 renal): 0.00753 µM; TGI (SN12K1 renal): 0.0286 µM and 0.0531 µM; GI50 (SNB-78 CNS): 0.05 µM; TGI (SNB-78 CNS): 0.202 µM and 0.0635 µM |
| Oc1ccc(-c2nc(-c3ccc(F)cc3)c(-c3ccc4ccccc4n3)[nH]2)cc1 | > 100 µM | 20.3 µM | 31.9 µM | – |
| COc1cc2c(cc1O)C1C(O)C(O)C=C3CCN(C2)C31 (stereo not drawn) | > 100 µM | 8.12 µM | 5.42 µM | TGI (DLD-1 colon): 14.2 µM; TGI (DMS 114 small cell lung): 4.33 µM; TGI (DMS 273 small cell lung): 8.24 µM; TGI (HOP-18 NSCLC): 8.19 µM; TGI (KM20L2 colon): 18.3 µM; TGI (M19-MEL melanoma): 8.84 µM; TGI (SNB-78 CNS): 9.27 µM; TGI (XF 498 CNS): 4.36 µM |
| CCCC(O)C(NC(=O)CCl)C(=O)O (stereo not drawn) | > 100 µM | > 100 µM | > 100 µM | TGI (DLD-1 colon): > 100 µM; TGI (DMS 114 small cell lung): > 100 µM; TGI (DMS 273 small cell lung): > 100 µM; TGI (HOP-18 NSCLC): > 100 µM; TGI (KM20L2 colon): > 100 µM; TGI (M19-MEL melanoma): > 100 µM; TGI (SN12K1 renal): > 100 µM; TGI (SNB-78 CNS): > 100 µM; TGI (XF 498 CNS): > 100 µM |
| O=C1NN=C2C=C(c3ccc(Cl)cc3)CC(c3cccc(Cl)c3)C12 (stereo not drawn) | 41.8 µM | > 100 µM | 38.5 µM | – |
| O=C1C[C@H]2[C@@H](O1)[C@@H](O)CN1C(=O)c3ccccc3[C@H]21 | > 100 µM | – | > 100 µM | – |
| COc1cccc2c1C(=O)c1c(O)c3c(c(O)c1C2=O)C[C@@](O)(C(=O)CO)C[C@@H]3OC1CC(N)C(OC)C(C)O1 (stereo partly drawn) | 0.0483 µM | 10.6 µM | 0.825 µM | TGI (DLD-1 colon): 3.37 µM; TGI (DMS 273 small cell lung): 1.4 µM; TGI (HOP-18 NSCLC): 0.977 µM; TGI (KM20L2 colon): 4.83 µM; TGI (M19-MEL melanoma): 0.237 µM; TGI (SNB-78 CNS): 16.9 µM |
